Source: patent publication US20210236539A1, “METHOD OF PROPHYLAXIS OF ZIKA VIRUS INFECTION” (priority 2016, published 2021)

Experiments:
[1] = test system: Dengue Type 2 virus; assay: Activity against Dengue Type 2 virus (DSP0196); type: cell-based
Experimental: (§1) The activity of dendrimeric compounds against Dengue virus (D) and West Nile Fever virus (WNF) was tested.
b) The compound [BHAlys] [Lys]16 [CSNH-4-Ph(SO3Na)]32 (SPL compound 2792) was tested for activity against Dengue Type 2 virus (DSP0196). (the compound has a sulfonic acid- or sulfonate-containing moiety which is […]

[2] = test system: West Nile Fever virus; assay: Activity against West Nile Fever virus (DSP0114), 4 concentration assay; type: cell-based
Experimental: as §1
a) The compound [BHAlys][Lys]16[CONH-Ph-3,5-(SO3Na)2]32 (SPL compound 7674) was tested for activity against West Nile Fever virus (DSP0114) (the compound has a sulfonic acid- or sulfonate-containing moiety which is
A 4 concentration assay was used. The positive control was interferon-alpha.

Substance	activity against Dengue Type 2 virus (in words) [1]	EC50 NR ([1]; Dengue Type 2 virus, NR readout)	EC50 VIS ([1]; Dengue Type 2 virus, VIS readout)	activity against West Nile Fever virus (in words) [2]	EC50 NR ([2]; West Nile Fever virus, NR readout)	EC50 VIS ([2]; West Nile Fever virus, VIS readout)
[BHAlys] [Lys]16 [CSNH-4-Ph(SO3Na)]32 [SPL compound 2792]	not active	50.3 µg/mL	> 100 µg/mL	–	–	–
[BHAlys][Lys]16[CONH-Ph-3,5-(SO3Na)2]32 [SPL compound 7674]	–	–	–	not active	34 µg/mL	22 µg/mL
